In BindingDB's records for doi:10.7270/Q2CF9NKD (Burnham Center For Chemical Genomics, 2010) one finds EC50 data, which are given here for 10 molecules.

In this assay the target is Intestinal-type alkaline phosphatase (Homo sapiens, UniProt P09923). Briefly: activation of human intestinal alkaline phosphatase – biochemical, luminescent, uHTS hits, set 2, dose response (AID 488817).
Sequence of Intestinal-type alkaline phosphatase (P09923 whole entry): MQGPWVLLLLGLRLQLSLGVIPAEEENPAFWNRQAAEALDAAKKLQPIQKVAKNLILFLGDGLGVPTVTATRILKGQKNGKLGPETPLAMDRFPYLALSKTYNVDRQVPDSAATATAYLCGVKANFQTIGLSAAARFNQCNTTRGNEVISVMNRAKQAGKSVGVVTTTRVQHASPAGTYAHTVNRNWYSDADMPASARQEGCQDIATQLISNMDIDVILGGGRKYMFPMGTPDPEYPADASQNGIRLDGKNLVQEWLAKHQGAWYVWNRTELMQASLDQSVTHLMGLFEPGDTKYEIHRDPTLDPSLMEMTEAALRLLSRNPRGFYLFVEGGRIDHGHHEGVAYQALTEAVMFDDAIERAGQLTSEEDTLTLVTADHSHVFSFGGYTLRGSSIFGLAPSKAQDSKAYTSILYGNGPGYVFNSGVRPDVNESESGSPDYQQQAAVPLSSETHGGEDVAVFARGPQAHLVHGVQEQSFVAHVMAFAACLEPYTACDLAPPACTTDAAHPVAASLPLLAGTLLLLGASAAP
`Cc1c(C(=O)NN=Cc2ccc(O)cc2O)[nH][nH]c1=O`: a half-maximal effect (EC50) was put at 11.3 µM.
Molecule `Cc1cc(Br)ccc1SCC(=O)OCC(=O)C(C#N)c1nc2ccccc2[nH]1` (stereo not given) [2-[(4-bromo-2-methylphenyl)thio]acetic acid [3-cyano-3-(1,3-dihydrobenzimidazol-2-ylidene)-2-oxopropyl] ester] came in with an EC50 of 27.5 µM.
In the case of `C=c1[nH]n(-c2nc3ccccc3[nH]2)c(=O)c1=CN(C)C` [(4E)-2-(1H-benzimidazol-2-yl)-4-(dimethylaminomethylidene)-5-methyl-pyrazol-3-one] it was 23.2 µM; in that of `CCc1ccc(CN=Nc2ncnc3nc[nH]c23)cc1` [MLS000419199], 12.5 µM.
In the case of `Cn1c(C(C#N)C(=O)c2ccc(Br)s2)nc2ccccc21` (stereo not given) [MLS001167394] it was 60 µM; in that of `COc1cccc(C=NNC(=O)c2[nH][nH]c(=O)c2C)c1O` [N'-[(E)-(5-methoxy-6-oxidanylidene-cyclohexa-2,4-dien-1-ylidene)methyl]-4-methyl-5-oxidanylidene-1,4-dihydropyrazole-3-carbohydrazide], 9.07 µM.
In the case of `O=c1c2ccccc2nc(N=NCc2c(O)ccc3ccccc23)n1O` [SMR000145705] it was 31 µM.
Consider `O=C(Nn1c(O)csc1=S)C(=O)Nn1c(O)csc1=S` [SMR000349781], for which the EC50 was found to be 12.4 µM.
As for `O=Nc1[nH]c(=O)c(CC(=O)c2ccccc2)nc1NO` [SMR000539633], the figure is 8.77 µM.
As for `CCOC(=O)c1c(C)[nH]c(C(=O)N/N=C/C2C=C([N+](=O)[O-])C=CC2=O)c1C` (stereo not given) [ethyl 2,4-dimethyl-5-[[[(E)-(3-nitro-6-oxocyclohexa-2,4-dien-1-ylidene)methyl]amino]carbamoyl]-1H-pyrrole-3-carboxylate], the figure is 11.4 µM.
